Laboratory results: the supplement of paper PMC10307832

Compound: CC1(C)CCC(CN2CCN(c3ccc(C(=O)NS(=O)(=O)c4ccc(NCC5CCOCC5)c([N+](=O)[O-])c4)c(Oc4cnc5[nH]ccc5c4)c3)CC2)=C(c2ccc(Cl)cc2)C1 [Venetoclax] + CC(C)C[C@H](NC(=O)[C@H](Cc1ccccc1)NC(=O)c1cnccn1)B(O)O [Bortezomib] (partner 0.002 µM)
Assay: relative viability (nuclei count vs DMSO), 5 days (fraction); higher = more cells survive
Details: first compound 1 µM
Outline: (§1)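 After 5 days of treatment, lung cancer cells in 1536-well plates were fixed and stained in a single step (final 0.05% Triton X-100, 1% formaldehyde, 1 ug/ml Hoechst) and their nuclei counted on 4× images. Treatment had been applied by pin tool the day after seeding as one drug alone or as a fixed anchor-drug dose with five library-drug doses (not always all listed) in √10 steps. Relative viability is the nuclei count of treated wells divided by that of vehicle wells, and values are medians of duplicate plates.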

Cell Line | relative viability
NCI-H1792 | 0.86
NCI-H596 | 1.14
NCI-H3122 | 1.02
201T | 1.06
NCI-H1993 | 1.02
HOP-62 | 0.625
NCI-H1355 | 1.18
NCI-H2405 | 0.907
NCI-H1437 | 0.492
NCI-H661 | 0.646
H3255 | 0.644
NCI-H2347 | 1.02
NCI-H1975 | 0.299
NCI-H441 | 0.476
NCI-H1650 | 0.184
NCI-H1915 | 0.919

Compound: CC1(C)CCC(CN2CCN(c3ccc(C(=O)NS(=O)(=O)c4ccc(NCC5CCOCC5)c([N+](=O)[O-])c4)c(Oc4cnc5[nH]ccc5c4)c3)CC2)=C(c2ccc(Cl)cc2)C1 [Venetoclax] + Nc1ncn([C@H]2C[C@H](O)[C@@H](CO)O2)c(=O)n1 [Decitabine] (partner 2 µM)
Assay: as above
Details: first compound 0.01 µM
Outline: as §1

Cell Line | relative viability
HARA | 0.62
COR-L23 | 0.458
COR-L 105 | 0.581
LC-2-ad | 0.858
LXF-289 | 0.35
ChaGo-K-1 | 0.465
NCI-H322M | 0.709
HCC-78 | 0.689
BEN | 0.747
HCC-15 | 0.519
HCC-827 | 0.303
NCI-H460 | 0.442
LU99A | 0.758
NCI-H2085 | 0.549
A-427 | 0.54
NCI-H520 | 0.526
NCI-H838 | 0.53

Cell Line | relative viability
NCI-H1792 | 0.522
NCI-H596 | 1.16
NCI-H3122 | 0.349
201T | 0.774
NCI-H1993 | 0.505
HOP-62 | 0.182
NCI-H1355 | 0.372
NCI-H2405 | 0.763
NCI-H1437 | 0.659
NCI-H661 | 0.561
H3255 | 0.657
NCI-H2347 | 0.616
NCI-H1975 | 0.358
NCI-H441 | 0.235
NCI-H1650 | 0.545
NCI-H1915 | 0.23

Same assay, conditions: first compound 0.03162 µM

Cell Line | relative viability
HARA | 0.633
COR-L23 | 0.478
COR-L 105 | 0.589
LC-2-ad | 0.778
LXF-289 | 0.37
ChaGo-K-1 | 0.503
NCI-H322M | 0.695
HCC-78 | 0.744
BEN | 0.721
HCC-15 | 0.699
HCC-827 | 0.418
NCI-H460 | 0.525
LU99A | 0.957
NCI-H2085 | 0.59
A-427 | 0.546
NCI-H520 | 0.506
NCI-H838 | 0.485

Cell Line | relative viability
NCI-H1792 | 0.506
NCI-H596 | 0.998
NCI-H3122 | 0.419
201T | 0.834
NCI-H1993 | 0.673
HOP-62 | 0.203
NCI-H1355 | 0.351
NCI-H2405 | 0.683
NCI-H1437 | 0.52
NCI-H661 | 0.528
H3255 | 0.582
NCI-H2347 | 0.59
NCI-H1975 | 0.371
NCI-H441 | 0.219
NCI-H1650 | 0.422
NCI-H1915 | 0.279

Same assay, conditions: first compound 0.1 µM

Cell Line | relative viability
COR-L23 | 0.444
COR-L 105 | 0.694
LC-2-ad | 0.785
LXF-289 | 0.385
ChaGo-K-1 | 0.488
NCI-H322M | 0.685
HCC-78 | 0.786
BEN | 0.737
HCC-15 | 0.611
HCC-827 | 0.34
NCI-H460 | 0.493
LU99A | 0.831
NCI-H2085 | 0.582
A-427 | 0.55
NCI-H838 | 0.445
NCI-H1792 | 0.468

Cell Line | relative viability
NCI-H596 | 0.923
NCI-H3122 | 0.378
201T | 0.792
NCI-H1993 | 0.541
HOP-62 | 0.199
NCI-H1355 | 0.402
NCI-H2405 | 0.74
NCI-H1437 | 0.52
NCI-H661 | 0.547
H3255 | 0.496
NCI-H2347 | 0.651
NCI-H1975 | 0.414
NCI-H441 | 0.208
NCI-H1650 | 0.408
NCI-H1915 | 0.258

Same assay, conditions: first compound 0.3162 µM

Cell Line | relative viability
HARA | 0.72
COR-L23 | 0.454
COR-L 105 | 0.76
LC-2-ad | 0.78
LXF-289 | 0.387
ChaGo-K-1 | 0.545
NCI-H322M | 0.804
HCC-78 | 0.652
BEN | 0.653
HCC-15 | 0.611
HCC-827 | 0.249
NCI-H460 | 0.498
LU99A | 0.803
NCI-H2085 | 0.566
A-427 | 0.54
NCI-H520 | 0.557
NCI-H838 | 0.449

Cell Line | relative viability
NCI-H1792 | 0.502
NCI-H596 | 0.914
NCI-H3122 | 0.373
201T | 0.82
NCI-H1993 | 0.621
HOP-62 | 0.216
NCI-H1355 | 0.37
NCI-H2405 | 0.717
NCI-H1437 | 0.542
NCI-H661 | 0.532
H3255 | 0.635
NCI-H2347 | 0.662
NCI-H1975 | 0.393
NCI-H441 | 0.23
NCI-H1650 | 0.407
NCI-H1915 | 0.258

Same assay, conditions: first compound 1 µM

Cell Line | relative viability
HARA | 0.606
COR-L23 | 0.39
COR-L 105 | 0.652
LC-2-ad | 0.765
LXF-289 | 0.4
ChaGo-K-1 | 0.519
NCI-H322M | 0.747
HCC-78 | 0.58
BEN | 0.673
HCC-15 | 0.543
HCC-827 | 0.346
NCI-H460 | 0.447
LU99A | 0.858
NCI-H2085 | 0.565
A-427 | 0.559
NCI-H520 | 0.458
NCI-H838 | 0.477

Cell Line | relative viability
NCI-H1792 | 0.463
NCI-H596 | 0.935
NCI-H3122 | 0.432
201T | 0.825
NCI-H1993 | 0.552
HOP-62 | 0.218
NCI-H1355 | 0.362
NCI-H2405 | 0.633
NCI-H1437 | 0.556
NCI-H661 | 0.529
H3255 | 0.597
NCI-H2347 | 0.738
NCI-H1975 | 0.43
NCI-H441 | 0.24
NCI-H1650 | 0.363
NCI-H1915 | 0.258

Compound: Cn1cnc2c(F)c(Nc3ccc(Br)cc3Cl)c(C(=O)NOCCO)cc21 [Selumetinib] + C[C@@H](Oc1cc(-c2cnn(C3CCNCC3)c2)cnc1N)c1c(Cl)ccc(F)c1Cl [Crizotinib] (partner 1 µM)
Assay: as above
Details: first compound 0.02 µM
Outline: as §1

Cell Line | relative viability
HARA | 1.02
COR-L23 | 0.798
COR-L 105 | 0.855
LC-2-ad | 0.397
LXF-289 | 0.872
ChaGo-K-1 | 1.12
NCI-H322M | 0.708
HCC-78 | 0.276
BEN | 0.773
HCC-15 | 0.669
HCC-827 | 0.945
NCI-H460 | 0.852
LU99A | 0.615
NCI-H2085 | 0.889
A-427 | 0.88
NCI-H520 | 0.791
NCI-H838 | 0.783

Cell Line | relative viability
NCI-H1792 | 0.986
NCI-H596 | 0.966
NCI-H3122 | 0.238
201T | 1.01
NCI-H1993 | 0.781
HOP-62 | 0.841
NCI-H1355 | 1.06
NCI-H2405 | 0.774
NCI-H1437 | 0.922
NCI-H661 | 1.25
H3255 | 0.879
NCI-H2347 | 0.771
NCI-H1975 | 1.1
NCI-H441 | 0.724
NCI-H1650 | 0.97
NCI-H1915 | 0.876

Same assay, conditions: first compound 0.06325 µM

Cell Line | relative viability
HARA | 1.02
COR-L23 | 0.653
COR-L 105 | 0.689
LC-2-ad | 0.446
LXF-289 | 0.7
ChaGo-K-1 | 1.18
NCI-H322M | 0.807
HCC-78 | 0.306
BEN | 0.873
HCC-15 | 0.498
HCC-827 | 0.913
NCI-H460 | 0.714
LU99A | 0.556
NCI-H2085 | 0.89
A-427 | 0.768
NCI-H520 | 0.766
NCI-H838 | 0.689

Cell Line | relative viability
NCI-H1792 | 0.86
NCI-H596 | 0.875
NCI-H3122 | 0.234
201T | 0.99
NCI-H1993 | 0.766
HOP-62 | 0.877
NCI-H1355 | 1.1
NCI-H2405 | 0.774
NCI-H1437 | 0.896
NCI-H661 | 0.945
H3255 | 0.96
NCI-H2347 | 0.645
NCI-H1975 | 0.898
NCI-H441 | 0.858
NCI-H1650 | 0.863
NCI-H1915 | 0.849

Same assay, conditions: first compound 0.2 µM

Cell Line | relative viability
HARA | 0.876
COR-L23 | 0.556
COR-L 105 | 0.714
LC-2-ad | 0.431
LXF-289 | 0.664
ChaGo-K-1 | 1.11
NCI-H322M | 0.796
HCC-78 | 0.281
BEN | 0.834
HCC-15 | 0.395
HCC-827 | 0.869
NCI-H460 | 0.672
LU99A | 0.558
NCI-H2085 | 0.822
A-427 | 0.73
NCI-H520 | 0.764
NCI-H838 | 0.634

Cell Line | relative viability
NCI-H1792 | 0.816
NCI-H596 | 0.845
NCI-H3122 | 0.23
201T | 0.93
NCI-H1993 | 0.749
HOP-62 | 0.909
NCI-H1355 | 0.796
NCI-H2405 | 0.716
NCI-H1437 | 0.829
NCI-H661 | 1.07
H3255 | 0.88
NCI-H2347 | 0.42
NCI-H1975 | 0.933
NCI-H441 | 0.78
NCI-H1650 | 0.888
NCI-H1915 | 0.677

Same assay, conditions: first compound 0.6325 µM

Cell Line | relative viability
HARA | 0.602
COR-L23 | 0.622
COR-L 105 | 0.635
LC-2-ad | 0.405
LXF-289 | 0.616
ChaGo-K-1 | 1.17
NCI-H322M | 0.828
HCC-78 | 0.299
BEN | 0.776
HCC-15 | 0.256
HCC-827 | 0.83
NCI-H460 | 0.544
LU99A | 0.544
NCI-H2085 | 0.704
A-427 | 0.701
NCI-H520 | 0.809
NCI-H838 | 0.601

Cell Line | relative viability
NCI-H1792 | 0.682
NCI-H596 | 0.599
NCI-H3122 | 0.236
201T | 0.902
NCI-H1993 | 0.748
HOP-62 | 0.515
NCI-H1355 | 0.681
NCI-H2405 | 0.549
NCI-H1437 | 0.561
NCI-H661 | 1.23
H3255 | 0.802
NCI-H2347 | 0.511
NCI-H1975 | 0.766
NCI-H441 | 0.556
NCI-H1650 | 0.786
NCI-H1915 | 0.467
